Test results published in patent US20160376605A1, “WHEAT PLANTS HAVING INCREASED TOLERANCE TO IMIDAZOLINONE HERBICIDES” (BASF SE, priority 2003, published 2016).

Key:
susceptible durum wheat = test: Imazamox rate killing susceptible wheat; format: in vivo
Protocol: Nine M4:6 lines derived from four M2 plants (C119, C132, C137, CO12) were evaluated in a replicated trial at one location in a durum growing area in Italy. 75 g/ha of imazamox was applied to BBCH growth stage 21-25 plants. A rate of 35 g/ha would typically result in virtually 100% mortality of susceptible wheat. Percent crop response (overall injury) varied from 0 to 13% 21 days after treatment (DAT), and from 0 to 17% 43 DAT. Yield as a percent of the same line untreated varied from 85% to 102%.
(§1) All tested lines survived at both rates of herbicide treatment, whereas all plants of the wild type were killed at both rates. Based on comparison to the wild type line, all lines tested expressed considerable tolerance to the applied rates, particularly when looking at height reduction relative to untreated plots. A rate of 35 g/ha imazamox is adequate to kill susceptible durum wheat.
(§2) A rate of 35 g/ha imazamox is adequate to kill susceptible Durum wheat.

[1] = system: Fifteen Durum lines, each derived from a different M2 plant; test: Greenhouse Trial: all fifteen mutagenesis-derived lines; format: in vivo, Durum wheat; conditions: 100 and 160 g/ha imazamox
Protocol: (§3) Fifteen Durum lines, each derived from a different M2 plant, and two wild type durum lines were evaluated for tolerance to the imidazolinone herbicide imazamox at rates of 100 and 160 g/ha in a greenhouse trial. Evaluations of tolerance were made at 14 and 21 days after treatment. Injury was scored on a 0-9 scale, with 0 representing no injury and 9 plant death.
as §2

Durum line UT19 = test: Greenhouse Trial: plant injury rating, imazamox; format: in vivo, Durum wheat; conditions: 0-9 scale, 0 = no injury, 9 = plant death
Protocol: as §3

Durum line UT16 = test: Greenhouse Trial: plant injury rating, imazamox; format: in vivo, Durum wheat; conditions: 0-9 scale, 0 = no injury, 9 = plant death
Protocol: as §3

Durum line UTO8 = test: Greenhouse Trial: plant injury rating, imazamox; format: in vivo, Durum wheat; conditions: 0-9 scale, 0 = no injury, 9 = plant death
Protocol: as §3

Durum line UT10 = test: Greenhouse Trial: plant injury rating, imazamox; format: in vivo, Durum wheat; conditions: 0-9 scale, 0 = no injury, 9 = plant death
Protocol: as §3

Durum line C119 = test: Greenhouse Trial: plant injury rating, imazamox; format: in vivo, Durum wheat; conditions: 0-9 scale, 0 = no injury, 9 = plant death
Protocol: as §3

Durum line UT14 = test: Greenhouse Trial: plant injury rating, imazamox; format: in vivo, Durum wheat; conditions: 0-9 scale, 0 = no injury, 9 = plant death
Protocol: as §3

Durum line UTO5 = test: Greenhouse Trial: plant injury rating, imazamox; format: in vivo, Durum wheat; conditions: 0-9 scale, 0 = no injury, 9 = plant death
Protocol: as §3

Durum line UTO7 = test: Greenhouse Trial: plant injury rating, imazamox; format: in vivo, Durum wheat; conditions: 0-9 scale, 0 = no injury, 9 = plant death
Protocol: as §3

Durum line UT12 = test: Greenhouse Trial: plant injury rating, imazamox; format: in vivo, Durum wheat; conditions: 0-9 scale, 0 = no injury, 9 = plant death
Protocol: as §3

[2] = system: Wild Type Line UT (durum); test: Greenhouse Trial: plant injury rating, imazamox; format: in vivo, Durum wheat; conditions: for Average plant injury rating: Wild Type Line UT, 0-9 scale, 0 = no injury, 9 = plant death
Protocol: as §3

Durum line UTO3 = test: Greenhouse Trial: plant injury rating, imazamox; format: in vivo, Durum wheat; conditions: 0-9 scale, 0 = no injury, 9 = plant death
Protocol: as §3

Durum line UT13 = test: Greenhouse Trial: plant injury rating, imazamox; format: in vivo, Durum wheat; conditions: 0-9 scale, 0 = no injury, 9 = plant death
Protocol: as §3

Durum line UT20 = test: Greenhouse Trial: plant injury rating, imazamox; format: in vivo, Durum wheat; conditions: 0-9 scale, 0 = no injury, 9 = plant death
Protocol: as §3

Durum line UTO1 = test: Greenhouse Trial: plant injury rating, imazamox; format: in vivo, Durum wheat; conditions: 0-9 scale, 0 = no injury, 9 = plant death
Protocol: as §3

Durum line UT15 = test: Greenhouse Trial: plant injury rating, imazamox; format: in vivo, Durum wheat; conditions: 0-9 scale, 0 = no injury, 9 = plant death
Protocol: as §3

Durum line UT17 = test: Greenhouse Trial: plant injury rating, imazamox; format: in vivo, Durum wheat; conditions: 0-9 scale, 0 = no injury, 9 = plant death
Protocol: as §3

[3] = system: AHAS of M2-derived imidazolinone herbicide tolerant lines; test: In vitro AHAS activity, tolerant lines overall; format: biochemical, Durum wheat; conditions: highest concentration of imazamox (100 uM), 'generally'
Excerpt: The in vitro activity of AHAS enzyme extracted from the plant can be measured biochemically. […] Even at relatively low concentrations, AHAS activity falls off rapidly.
Table 3 also contains AHAS activity data for several M2-derived imidazolinone herbicide tolerant lines.

[4] = system: One hundred ten M3:4 durum lines derived from sixteen M2 plants; test: Field Trials (2): all tested M3:4 lines; format: in vivo, Durum wheat
Excerpt: One hundred ten M3:4 lines derived from sixteen M2 plants were screened at 71 g/ha and 160 g/ha imazamox. The number of M4 lines per M2 plant varied from one to twenty. Tolerance of M3:4 lines was compared to untreated plots of the same line as well as to treated plots of a wild-type cultivar from which some of them were derived.
as §1

SMILES: COCc1cnc(C2=NC(C)(C(C)C)C(=O)N2)c(C(=O)O)c1 (centres unmarked) [imazamox]
- rate adequate to kill susceptible durum wheat (susceptible durum wheat; imazamox application rate): 35 g/ha
- mortality at 35 g/ha (susceptible durum wheat; read-out: mortality of susceptible wheat): ~100%
- tolerance to imazamox [1]: excellent tolerance
- Average plant injury rating (Durum line UT19; imazamox 100 g/ha, 14 DAT): 3.3
- Average plant injury rating (Durum line UT19; imazamox 100 g/ha, 21 DAT): 1.1
- Average plant injury rating (Durum line UT19; imazamox 160 g/ha, 14 DAT): 3.6
- Average plant injury rating (Durum line UT19; imazamox 160 g/ha, 21 DAT): 1.7
- Average plant injury rating (Durum line UT16; imazamox 100 g/ha, 14 DAT): 5.4
- Average plant injury rating (Durum line UT16; imazamox 100 g/ha, 21 DAT): 2.0
- Average plant injury rating (Durum line UT16; imazamox 160 g/ha, 14 DAT): 4.9
- Average plant injury rating (Durum line UT16; imazamox 160 g/ha, 21 DAT): 2.8
- Average plant injury rating (Durum line UTO8; imazamox 100 g/ha, 14 DAT): 4.5
- Average plant injury rating (Durum line UTO8; imazamox 100 g/ha, 21 DAT): 1.9
- Average plant injury rating (Durum line UTO8; imazamox 160 g/ha, 14 DAT): 5.5
- Average plant injury rating (Durum line UTO8; imazamox 160 g/ha, 21 DAT): 3.0
- Average plant injury rating (Durum line UT10; imazamox 100 g/ha, 14 DAT): 5.8
- Average plant injury rating (Durum line UT10; imazamox 100 g/ha, 21 DAT): 4.3
- Average plant injury rating (Durum line UT10; imazamox 160 g/ha, 14 DAT): 6.5
- Average plant injury rating (Durum line UT10; imazamox 160 g/ha, 21 DAT): 5.1
- Average plant injury rating (Durum line C119; imazamox 100 g/ha, 14 DAT): 4.8
- Average plant injury rating (Durum line C119; imazamox 100 g/ha, 21 DAT): 1.0
- Average plant injury rating (Durum line C119; imazamox 160 g/ha, 14 DAT): 4.9
- Average plant injury rating (Durum line C119; imazamox 160 g/ha, 21 DAT): 1.4
- Average plant injury rating (Durum line UT14; imazamox 100 g/ha, 14 DAT): 3.1
- Average plant injury rating (Durum line UT14; imazamox 100 g/ha, 21 DAT): 1.7
- Average plant injury rating (Durum line UT14; imazamox 160 g/ha, 14 DAT): 4.8
- Average plant injury rating (Durum line UT14; imazamox 160 g/ha, 21 DAT): 3.5
- Average plant injury rating (Durum line UTO5; imazamox 100 g/ha, 14 DAT): 3.0
- Average plant injury rating (Durum line UTO5; imazamox 100 g/ha, 21 DAT): 1.3
- Average plant injury rating (Durum line UTO5; imazamox 160 g/ha, 14 DAT): 3.3
- Average plant injury rating (Durum line UTO5; imazamox 160 g/ha, 21 DAT): 1.8
- Average plant injury rating (Durum line UTO7; imazamox 100 g/ha, 14 DAT): 3.7
- Average plant injury rating (Durum line UTO7; imazamox 100 g/ha, 21 DAT): 1.9
- Average plant injury rating (Durum line UTO7; imazamox 160 g/ha, 14 DAT): 4.4
- Average plant injury rating (Durum line UTO7; imazamox 160 g/ha, 21 DAT): 2.5
- Average plant injury rating (Durum line UT12; imazamox 100 g/ha, 14 DAT): 4.8
- Average plant injury rating (Durum line UT12; imazamox 100 g/ha, 21 DAT): 2.1
- Average plant injury rating (Durum line UT12; imazamox 160 g/ha, 14 DAT): 5.7
- Average plant injury rating (Durum line UT12; imazamox 160 g/ha, 21 DAT): 2.8
- Average plant injury rating ([2]; imazamox 100 g/ha, 14 DAT): 8.9
- Average plant injury rating ([2]; imazamox 100 g/ha, 21 DAT): 9.0
- Average plant injury rating ([2]; imazamox 160 g/ha, 14 DAT): 9.0
- Average plant injury rating ([2]; imazamox 160 g/ha, 21 DAT): 9.0
- survival of wild type plants ([2]; imazamox 100 and 160 g/ha, by 21 days after treatment): killed
- Average plant injury rating (Durum line UTO3; imazamox 100 g/ha, 14 DAT): 4.8
- Average plant injury rating (Durum line UTO3; imazamox 100 g/ha, 21 DAT): 2.2
- Average plant injury rating (Durum line UTO3; imazamox 160 g/ha, 14 DAT): 5.2
- Average plant injury rating (Durum line UTO3; imazamox 160 g/ha, 21 DAT): 2.8
- Average plant injury rating (Durum line UT13; imazamox 100 g/ha, 14 DAT): 4.7
- Average plant injury rating (Durum line UT13; imazamox 100 g/ha, 21 DAT): 2.3
- Average plant injury rating (Durum line UT13; imazamox 160 g/ha, 14 DAT): 5.8
- Average plant injury rating (Durum line UT13; imazamox 160 g/ha, 21 DAT): 3.4
- Average plant injury rating (Durum line UT20; imazamox 100 g/ha, 14 DAT): 5.0
- Average plant injury rating (Durum line UT20; imazamox 100 g/ha, 21 DAT): 2.1
- Average plant injury rating (Durum line UT20; imazamox 160 g/ha, 14 DAT): 5.3
- Average plant injury rating (Durum line UT20; imazamox 160 g/ha, 21 DAT): 2.5
- Average plant injury rating (Durum line UTO1; imazamox 100 g/ha, 14 DAT): 4.0
- Average plant injury rating (Durum line UTO1; imazamox 100 g/ha, 21 DAT): 1.4
- Average plant injury rating (Durum line UTO1; imazamox 160 g/ha, 14 DAT): 4.1
- Average plant injury rating (Durum line UTO1; imazamox 160 g/ha, 21 DAT): 2.6
- Average plant injury rating (Durum line UT15; imazamox 100 g/ha, 14 DAT): 4.3
- Average plant injury rating (Durum line UT15; imazamox 100 g/ha, 21 DAT): 2.7
- Average plant injury rating (Durum line UT15; imazamox 160 g/ha, 14 DAT): 4.6
- Average plant injury rating (Durum line UT15; imazamox 160 g/ha, 21 DAT): 3.0
- Average plant injury rating (Durum line UT17; imazamox 100 g/ha, 14 DAT): 4.1
- Average plant injury rating (Durum line UT17; imazamox 100 g/ha, 21 DAT): 2.5
- Average plant injury rating (Durum line UT17; imazamox 160 g/ha, 14 DAT): 4.7
- Average plant injury rating (Durum line UT17; imazamox 160 g/ha, 21 DAT): 3.1
- AHAS activity relative to that of the control [3]: one third to one half
- survival of tested lines ([4]; imazamox 71 g/ha and 160 g/ha (both rates), all tested M3:4 lines): survived
- tolerated rate relative to the 35 g/ha rate that kills susceptible durum wheat ([4]; lines evaluated at 71 and 160 g/ha imazamox): almost 3 times to over 4 times
